Results taken from patent US9017963B2, “Method for detecting microorganisms” (Woundchek Laboratories (US), Inc., priority 2002, dated 2015).
Primed or numbered codes have the meaning given here. No end group written: not given here. *: point of attachment. Dabcyl″ = label, CN(C)c1ccc(/N=N/c2ccc(C(=O)*)cc2)cc1; EDANS = O=S(=O)(O)c1cccc2c(NCCN*)cccc12; Dabcyl′ = not defined here; pyrene = label

Legend:
[1] = system: surface of Staphylococcus; assay: Binding of fluorescent peptide to the surface of Staphylococcus; conditions: predicted
Source text: Substrates for use in the present invention include any molecule, either synthetic or naturally-occurring that can interact with an enzyme of the present invention. Examples of substrates include those substrates described herein, as well as substrates for these enzymes that are known in the art. […] Such substrates described herein can be obtained from commercial sources, e.g., Sigma (St. Louis, Mo.), or can be produced, e.g., isolated or purified, or synthesized using methods known to those of skill in the art.

[2] = system: Pseudomonas aeruginosa protease; assay: Protease assay for P. aeruginosa (strains P1, PA14, ZK45 supernatants); type: biochemical; conditions: 20 mM tris (pH 7.5), 150 mM NaCl, 37° C.
Source text: The peptide substrates used here were labeled with the fluorescent probe edans (5-((2-aminoethyl)amino)naphthalene-1-sulfonic acid) and the quencher dye molecule dabcyl ((4-(4-(dimethylamino)phenyl)azo)benzoic acid). The labeled peptide sequences used were as follows: […]

P. aeruginosa protease = assay: Protease assay on porcine wound fluid; type: biochemical, Pseudomonas aeruginosa; conditions: porcine wounds infected with 10^3, 10^4 or 10^5 bacteria, 3 days; 1 hour reaction; FIG. 18
Experimental: In order to test for the presence of enzymatic activity in a wound bacterial protease assay for detection of P. aeruginosa was performed on samples obtained from wound infections made in pigs. […] Each of the resulting cultures was diluted into sodium phosphate buffer at pH 7.2 with 150 mM NaCl (PBS buffer) to give samples containing 10^5, 10^4, and 10^3 bacteria total in 100 μL. Immediately after surgery to create a series of partial thickness wounds was performed on the pigs, the wound surfaces were treated with calcium chloride solution for a short period and then patted dry. A buffer solution containing diluted bacterial cultures was placed on the surface of the wounds. The wounds were then covered and the infections were allowed to grow for a period of 3 days. After the dressing was removed from the pigs and the wounds were scored for degree of inflammation, 100 μL of PBS buffer was added to the wound surface and the extracted wound fluid was recovered by pipet. Each of the samples was split in half and 50 μL were used to inoculate BHI plates and the other 50 μL were placed in plastic tubes and immediately frozen at −80° C.
The buffer used to dilute the wound fluid in the protease assays was PBS. […] The reaction was followed on a fluorimetric plate reader using an excitation wavelength of 355 nm and an emission wavelength of 528 nm.

Pseudomonas protease = assay: Protease assay with modified version of papa1, bacterial supernatants; type: biochemical, Pseudomonas aeruginosa; conditions: supernatants of eight bacteria; excitation 355 nm, emission 485 nm; FIG. 17A
Experimental: The protease assay described herein for detection of P. aeruginosa was run with the modified version of papa1. […] Each of the resulting cultures was spun down by centrifugation and the supernatant was collected. The assays were run in 20 mM tris buffer (pH 7.4) with 150 mM NaCl added. The reaction was carried out with 7 μL of supernatant and 3 μL of peptide substrate (5 mg/mL in water) in 100 μL total volume at 37° C. The reaction was followed on a fluorimetric plate reader using an excitation wavelength of 355 nm and an emission wavelength of 485 nm.

Pseudomonas = assay: Peptide on positively charged membrane exposed to Pseudomonas culture medium; type: biochemical; conditions: FIG. 17C
Source text: Electrostatic interactions make use of the charges on the peptide or chromophore to bind it to a surface to make a biosensor. For example, ion exchange membranes with a strong negative (ICE450) or positive (SB-6407) charge are available from Pall Gelman Laboratory, Ann Arbor, Mich. It is possible to bind the peptide substrates through interactions with their charged groups. The peptide substrate papa2, as described herein, was spotted onto a positively charged membrane and exposed to Pseudomonas culture medium.

[3] = system: lipases secreted by bacteria (Staphylococcus epidermidis); assay: Lipase assay, S. epidermidis culture supernatant; type: biochemical; conditions: 20 mM Tris (pH 8.5), 37° C., 60 minutes
Experimental: (§1) A culture of each of the following bacterial species was grown to saturation in Brain Heart Infusion (BHI) broth at 37° C. with vigorous shaking (˜200 rpm), using methods that are standard in the art: Staphylococcus aureus; Staphylococcus epidermidis; Serratia marcescens; Streptococcus salivarius; Escherichia coli; Pseudomonas aeruginosa; and Enterococcus faecalis. After overnight growth (to saturation), a 1 mL sample of each culture was obtained, and the cells were removed from the culture supernatant by centrifugation at 12,000×g for 5 minutes. The remaining culture supernatants were stored on ice until required (less than one hour). The bacteria were assayed for the presence or absence of specific enzymes as described below. Alternatively, the bacterial cells are not separated from the culture supernatant, but rather, the assay is carried out on a sample containing the cells still in suspension in their culture broth. […]
(§2) To perform the lipase assay, 80 μL of reaction buffer, 10 μL of culture supernatant from each bacteria species described in Example 2, and 10 μL of assay substrate were added to a well of a 96-well microplate. […] At 5 minute intervals during the incubation period, absorbance at 415 nm, indicating modification of the enzyme by a lipase secreted by the cells, was automatically measured using a BioRad Benchmark Microplate reader.

lipase from S. aureus = assay: Lipase assay, S. aureus culture supernatant; type: biochemical, Staphylococcus aureus; conditions: 20 mM Tris (pH 8.5), 37° C., 60 minutes
Experimental: A culture of each of the following bacterial species was grown to saturation in Brain Heart Infusion (BHI) broth at 37° C. with vigorous shaking (˜200 rpm), using methods that are standard in the art: Staphylococcus aureus; Staphylococcus epidermidis; Serratia marcescens; Streptococcus salivarius; Escherichia coli; Pseudomonas aeruginosa; and Enterococcus faecalis. After overnight growth (to saturation), a 1 mL sample of each culture was obtained, and the cells were removed from the culture supernatant by centrifugation at 12,000×g for 5 minutes. The remaining culture supernatants were stored on ice until required (less than one hour). The bacteria were assayed for the presence or absence of specific enzymes as described below. Alternatively, the bacterial cells are not separated from the culture supernatant, but rather, the assay is carried out on a sample containing the cells still in suspension in their culture broth.
To test for the presence or absence of lipases secreted by bacteria, the lipase substrate p-nitrophenyl caprate, obtained from Sigma (Catalog No.: N-0252). This lipase substrate consists of capric acid, a ten-carbon lipid molecule, esterified with the dye para nitrophenol (detectable label) as described above. The substrate was dissolved in isopropyl alcohol at a concentration of 8 mM (2.35 mg/mL). A reaction buffer containing 20 mM Tris (pH 8.5) was also prepared.
To perform the lipase assay, 80 μL of reaction buffer, 10 μL of culture supernatant from each bacteria species described in Example 2, and 10 μL of assay substrate were added to a well of a 96-well microplate. Each bacterial species was assayed individually, and the assays were performed in triplicate. The 96-well plate was incubated at 37° C. for 60 minutes. At 5 minute intervals during the incubation period, absorbance at 415 nm, indicating modification of the enzyme by a lipase secreted by the cells, was automatically measured using a BioRad Benchmark Microplate reader.
However, it is known that bacterial lipases do show strong substrate specificity with regard to the chain length of the fatty acid they hydrolyze (Van Kampen et al., BBA, 1544: 229, 2001) and to the location in a lipid layer. The degree that the environment of the substrate affects the efficiency of hydrolysis depends on the particular enzyme. To test this for the lipase from S. aureus, the above-described lipase assay was performed in the presence of several detergent and solvent additives. The reaction buffer consisted of 20 mM Tris (pH 8.3) with 1 mM ZnSO4 added, plus either nothing additional (control), 20% methanol, 20% DMSO, or 10 mM Triton X-100.

[4] = system: Serratia marcescens, Streptococcus salivarius, Escherichia coli, Pseudomonas aeruginosa, Enterococcus faecalis supernatants; assay: Lipase assay, other bacterial supernatants; type: biochemical; conditions: other bacterial samples; 20 mM Tris (pH 8.5); 37° C., 60 minutes
Experimental: as §1, §2

[5] = system: Staphylococcus epidermidis; assay: Glass microfiber filter biosensor, S. epidermidis culture; type: biochemical; conditions: Quadrant #2, S. epidermidis; 37° C., 30 minutes
Experimental: (§3) An example of a biosensor for the detection of an enzyme secreted by Staphylococcus epidermidis (S. epidermidis), and therefore, for the detection of Staphylococcus epidermidis now follows. A […] solution of 20 mM p-nitrophenyl Caprate (in ispropanol) was applied to a 2.5 cm glass microfiber filter (Whatman GF/A). The isopropanol was allowed to evaporate at room temperature for 30 minutes, leaving the substrate bound to the filter. After the filter was completely dry, a single drop of bacterial culture was applied to each quadrant of the filter. In Quadrant #1, Staphylococcus aureus was applied; in Quadrant #2, Staphylococcus epidermidis was applied; in Quadrant #3 Streptococcus salivarius was applied, and in Quadrant #4, media was applied as a control. The filter was incubated at 37° C. for 30 minutes, and detection of a yellow dye, indicating modification of the substrate by an enzyme in the bacteria was detected.

Staphylococcus aureus = assay: Glass microfiber filter biosensor, S. aureus culture; type: biochemical; conditions: Quadrant #1, S. aureus; 37° C., 30 minutes
Experimental: as §3

Streptococcus salivarius = assay: Glass microfiber filter biosensor, S. salivarius culture; type: biochemical; conditions: Quadrant #3, S. salivarius; 37° C., 30 minutes
Experimental: as §3

[6] = system: DNA metabolism enzymes (exonuclease and endonuclease) in bacterial supernatants; assay: Fluorescent DNA probe assay for DNA metabolism activity; type: biochemical; conditions: supernatants of eight bacteria; excitation 485 nm, emission 538 nm; 37° C.
Experimental: Another method for detecting DNA metabolism activity is to generate synthetic colorimetric and fluorescent DNA probes that can indicate DNA hydrolysis (exonuclease and endonuclease activity). The method was carried out as follows. Two complementary oligonucleotides were generated. One oligonucleotide was labeled with self-quenching fluorescent labels, while the other primer remained unlabeled. The sequences of the oligonucleotides were as follows: Unlabeled Sequence 5′-[…]-3 (SEQ ID NO: 6); and Labeled Sequence FL-5′-[…]-3′-FL (SEQ ID NO: 7). […] The culture was spun down by centrifugation and the supernatant was collected. The fluorescent labeled primer and its unlabeled complement were dissolved in water at a concentration of approximately 1 mg/mL. The primers were heated to melting temperature for 2 minutes at 92° C., then allowed to anneal for 5 minutes at 43° C. After annealing, the DNA substrate was added to the reaction buffer (20 mM tris (pH 7.4) with 150 mM NaCl) and incubated at 37° C. for 10 minutes. The reaction was carried out with 7 μL of culture supernatant and 3 μL of DNA substrate in 100 μL total volume at 37° C. The reaction was followed using a fluorimetric plate reader using an excitation wavelength of 485 nm and an emission wavelength of 538 nm. […]

PGTKLYTVPW-pyrene [Alt derived fluorescent peptide]
change in fluorescence upon binding [1]: increase in fluorescence upon binding

Edans - KAAHKSALKSAE - Dabcyl (Edans-KAAHKSALKSAE-{Dabcyl′}) [papa1, labeled peptide substrate of Pseudomonas aeruginosa, origin PepA]
enzymatic cleavage of peptide substrate (relative fluorescent intensity) [2]: cleaved
detection of P. aeruginosa in extracted wound fluid (relative fluorescence) (P. aeruginosa protease): samples containing P. aeruginosa were detectable

KKAS(E-edans)AAHKSALKSAE(K-dabcyl) (KKASE(EDANS)AAHKSALKSAEK(Dabcyl″)) [papa2, papa1 version with two lysine groups as tag for surface attachment]
cleavage of protease substrate (relative fluorescence), comparison of species (Pseudomonas protease): greatest fluorescence in the sample containing Pseudomonas
fluorescence upon cleavage on membrane (Pseudomonas): upon cleavage of the peptide yellow fluorescence

CCCCCCCCCC(=O)Oc1ccc([N+](=O)[O-])cc1 [p-nitrophenyl caprate]
color change (absorbance at 415 nm) [3]: showed a dramatic color change
color change (absorbance at 415 nm) (lipase from S. aureus): showed a dramatic color change
color change (absorbance at 415 nm) [4]: showed no color change
modification of labeled substrate on filter (yellow dye) [5]: Modification of the labeled substrate was detected
modification of labeled substrate on filter (yellow dye) (Staphylococcus aureus): no modification of the labeled substrate was detected
modification of labeled substrate on filter (yellow dye) (Streptococcus salivarius): no modification of the labeled substrate was detected

FL-5′-AGGAATTCAGTGGATCCTCGAGAGG-3′-FL (antisense CCTCTCGAGGATCCACTGAATTCCT; sense: DNA, backbone not given here; antisense: DNA, backbone and methylation of C not given here; further chemistry not fully specified) [labeled DNA probe]
DNA metabolic activity (relative fluorescence of labeled probe) [6]: detected specific DNA metabolic activity associated with Enterococcus
